Results on 35 compounds are retold here after patent publication US20200223837A1, “BENZOFURAN AMIDES AND HETEROAROMATIC ANALOGUES THEREOF FOR USE IN THERAPY” (European Molecular Biology Laboratory, priority 2017, published 2020).

The assay concerns EGR1 promoter. Put plainly: EGR1 reporter assay (luciferase) in genomically engineered HeLa cell line. Type of assay: cell-based. To be noted: Homo sapiens; EGR1 reporter HeLa cells, luciferase activity after 24 hours with compound. The text has this:
The compounds of the present invention can be characterized for their effect on expression of egr1 (early growth response protein 1) using an EGR1 reporter cell line.
The HeLa cell line was genetically modified to provide a simple, robust and highly reproducible cell-based assay reporting the activity of an endogenous EGR1 promoter. In brief, a construct encoding EGFP and luciferase proteins, separated by a self-cleaving P2A peptide was inserted, using CRISPR, immediately downstream (3′) to the promoter of endogenous EGR1. Upon treatment with compounds, cells express EGFP and luciferase from EGR1 promoter, which can be readily detected either in live cells using microscopy or cytometry, or through detection of luciferase activity in cell lysates.
To achieve stable genomic integration of an EGR1-promoter dual reporter, two plasmids were generated: one contained the reporter construct (eGFP-P2A-luciferase) flanked by homology arms that direct insertion into genomic DNA, by homologous recombination, of a break in genomic DNA generated by guide RNA targeted cleavage by Cas9 endonuclease. The gRNA expressing plasmid was based on px330 (56), into which a gRNA sequence that targets a break in gDNA close to the start codon of EGR1 was cloned. The left homology arm (encoding part of EGR1 promoter adjacent to its start codon) and right homology arm (encoding […] of start codon of EGR1) were cloned from gDNA using the following primers: […]
The present compounds can be tested, e.g. by using a HeLa cell line carrying an EGR1 reporter construct which allows for expression of luciferase and eGFP (enhanced GFP) controlled by the EGR1 promoter. For this reporter cells are seeded in the wells of a 384 well microtiter plate at a density of 2000 cells per well in 48 μl of DMEM supplemented with 4.5 g/l glucose, 2 mM glutamine and 10% FCS and are incubated for 24 hours at 37° C. with 5% CO2 and 95% humidity. Then, an eleven point 1:3 serial dilution of each test compound, from an initial concentration of 100 μM, is prepared in DMSO and the dilutions are added to the cells in a volume of 2 μl per well. The cells are incubated for a further 24 hours, after which the luciferase activity of each well is determined by addition of 25 μl of luciferase substrate reaction mixture (Britelite™ plus, Perkin Elmer) and measuring the bioluminescence light output (EnVision Xcite plate reader, PerkinElmer).
The compound of example 64 served as a positive control for this EGR1 reporter assay. The compound of example 64 had been identified in an initial high throughput screening campaign.

Usually EC50 stands for the concentration needed to bring the measured effect to its halfway point. Turning to `Cc1ccc2c(CC(=O)Nc3ncc(C(F)(F)F)[nH]3)coc2c1C` [Example 55, 2-(6,7-Dimethylbenzofuran-3-yl)-N-[5-(trifluoromethyl)-1H-imidazol-2-yl]acetamide], the EC50 lay in the range of 0.01 to 10 µM. For the compound `COCc1cnc(NC(=O)Cc2coc3cc(Cl)ccc23)s1` [Example 56], the EC50 was 0.01 to 10 µM. For the compound `Cc1cnc(NC(=O)Cc2coc3c(Cl)c(C)ccc23)[nH]1` [Example 57, 2-(7-Chloro-6-methyl-benzofuran-3-yl)-N-(5-methyl-1H-imidazol-2-yl)acetamide], the EC50 lay within 0.01 to 10 µM. With `Cc1ccc2c(CC(=O)Nc3ncc(C(F)(F)F)[nH]3)coc2c1Cl` [Example 58, 2-(7-Chloro-6-methyl-benzofuran-3-yl)-N-[5-(trifluoromethyl)-1H-imidazol-2-yl]acetamide], the 50% effective concentration (EC50) is 0.01 to 10 µM. On to `Cc1ccc2c(CC(=O)Nc3ncc(C#N)s3)coc2c1Cl` [Example 59, 2-(7-Chloro-6-methyl-benzofuran-3-yl)-N-(5-cyano-1H-thiazol-2-yl)acetamide], for which the EC50 was in the range of 0.01 to 10 µM. As to `O=C(Cc1coc2cc(Cl)ccc12)Nc1ncc(C(F)(F)F)s1` [Example 60, 2-(6-Chlorobenzofuran-3-yl)-N-[5-(trifluoromethyl)thiazol-2-yl]acetamide], the EC50 lay in the range of 0.01 to 10 µM. The figure for `Cc1ccc2c(CCC(=O)Nc3ncc(C(F)(F)F)s3)coc2c1C` [Example 61, 3-(6,7-Dimethylbenzofuran-3-yl)-N-[5-(trifluoromethyl)thiazol-2-yl]propanamide] is 0.01 to 10 µM. As to `Cc1ccc2c(CC(=O)Nc3ncc(C#N)s3)coc2c1C` [Example 62, N-(5-Cyanothiazol-2-yl)-2-(6,7-dimethylbenzofuran-3-yl)acetamide], the EC50 lay within 0.01 to 10 µM. With `O=C(Cc1coc2cc3c(cc12)CCC3)Nc1ncc(C(F)(F)F)s1` [Example 63, 2-(6,7-Dihydro-5H-cyclopenta[f]benzofuran-3-yl)-N-[5-(trifluoromethyl)thiazol-2-yl]acetamide] the figure was 0.01 to 10 µM. With `COCc1cnc(NC(=O)Cc2coc3cc4c(cc23)CCC4)s1` [Example 65, 2-(6,7-Dihydro-5H-cyclopenta[f]benzofuran-3-yl)-N-[5-(methoxymethyl)thiazol-2-yl]acetamide] the figure was 0.01 to 10 µM; with `CC(C(=O)Nc1ncc(C(F)(F)F)s1)c1coc2cc(Cl)ccc12` (centres unmarked) [Example 66, 2-(6-Chlorobenzofuran-3-yl)-N-[5-(trifluoromethyl)thiazol-2-yl]propanamide], 0.01 to 10 µM; with `COc1ccc(-c2csc(NC(=O)Cc3coc4cc(C)ccc34)n2)cc1Cl` [Example 67, N-[4-(3-Chloro-4-methoxy-phenyl)thiazol-2-yl]-2-(6-methylbenzofuran-3-yl)acetamide], 0.01 to 10 µM. The figure for `COc1ccc2c(CC(=O)N(c3ccc(C(C)=O)cc3)c3nc4ccccc4s3)coc2c1` [Example 68, N-(4-Acetylphenyl)-N-(1,3-benzothiazol-2-yl)-2-(6-methoxybenzofuran-3-yl)acetamide] is 0.01 to 10 µM; for `CCc1ccc2c(CC(=O)N(c3ccc(C(C)=O)cc3)c3nc4ccccc4s3)coc2c1` [Example 69, N-(4-Acetylphenyl)-N-(1,3-benzothiazol-2-yl)-2-(6-ethylbenzofuran-3-yl)acetamide] it is 0.01 to 10 µM. `C=CCN(C(=O)Cc1coc2cc(C)ccc12)c1nc(-c2ccc(S(C)(=O)=O)cc2)cs1` [Example 70, N-Allyl-2-(6-methylbenzofuran-3-yl)-N-[4-(4-methylsulfonylphenyl)thiazol-2-yl]acetamide]: the EC50 is 0.01 to 10 µM. With `COc1ccc(-c2csc(NC(=O)Cc3coc4cc(OC)ccc34)n2)cc1` [Example 71, 2-(6-Methoxybenzofuran-3-yl)-N-[4-(4-methoxyphenyl)thiazol-2-yl]acetamide], the EC50 is 0.01 to 10 µM. Regarding `N#Cc1cnc(NC(=O)Cc2coc3c(Cl)c(Cl)ccc23)s1` [Example 73, N-(5-Cyanothiazol-2-yl)-2-(6,7-dichlorobenzofuran-3-yl)acetamide], the concentration for a half-maximal effect (EC50) lay within 0.01 to 10 µM. Consider `COc1ccc2c(CC(=O)Nc3nc(-c4ccc5c(c4)CCO5)cs3)coc2c1` [Example 74, N-[4-(2,3-Dihydrobenzofuran-5-yl)thiazol-2-yl]-2-(6-methoxybenzofuran-3-yl)acetamide], for which the EC50 is 0.01 to 10 µM. Turning to `Cc1cnc(NC(=O)Cc2coc3c(Cl)c(Cl)ccc23)s1` [Example 75, 2-(6,7-Dichlorobenzofuran-3-yl)-N-(5-methylthiazol-2-yl)acetamide], the EC50 lay in the range of 0.01 to 10 µM.

`COc1ccc2c(CC(=O)Nc3nc(-c4ccc(C5CCCCC5)cc4)cs3)coc2c1` [Example 76, N-[4-(4-Cyclohexylphenyl)thiazol-2-yl]-2-(6-methoxybenzofuran-3-yl)acetamide]: the EC50 was 0.01 to 10 µM. With `COc1ccc2c(CC(=O)N(c3ccc(SC(F)F)cc3)c3nc4ccccc4s3)coc2c1` [Example 77, N-(1,3-Benzothiazol-2-yl)-N-[4-(difluoromethylsulfanyl)phenyl]-2-(6-methoxybenzofuran-3-yl)acetamide] the figure was 0.01 to 10 µM; with `COc1ccc2c(CC(=O)Nc3nc(-c4ccc5c(c4)OCO5)cs3)coc2c1` [Example 78, N-[4-(1,3-Benzodioxol-5-yl)thiazol-2-yl]-2-(6-methoxybenzofuran-3-yl)acetamide], 0.01 to 10 µM. The figure for `COc1ccc2c(CC(=O)Nc3ncc(C)s3)coc2c1C` [Example 79, 2-(6-Methoxy-7-methyl-benzofuran-3-yl)-N-(5-methylthiazol-2-yl)acetamide] is 0.01 to 10 µM. With `O=C(Cc1coc2cc3c(cc12)CCC3)NCCNc1ncc(CO)s1` [Example 80, 2-(6,7-Dihydro-5H-cyclopenta[f]benzofuran-3-yl)-N-[2-[[5-(hydroxymethyl)thiazol-2-yl]amino]ethyl]acetamide] the figure was 0.01 to 10 µM; with `Cc1cc2occ(CC(=O)N(c3ccc(SC(F)F)cc3)c3nc4ccccc4s3)c2cc1C(C)C` [Example 81, N-(1,3-Benzothiazol-2-yl)-N-[4-(difluoromethylsulfanyl)phenyl]-2-(5-isopropyl-6-methyl-benzofuran-3-yl)acetamide], 0.01 to 10 µM; with `Cc1ccc2c(CC(=O)N(c3ccc(SC(F)F)cc3)c3nc4ccccc4s3)coc2c1C` [Example 82, N-(1,3-Benzothiazol-2-yl)-N-[4-(difluoromethylsulfanyl)phenyl]-2-(6,7-dimethylbenzofuran-3-yl)acetamide], 0.01 to 10 µM. Consider `Cc1ccc2c(CC(=O)Nc3ncc(C(F)(F)F)s3)coc2c1Cl` [Example 83, 2-(7-Chloro-6-methyl-benzofuran-3-yl)-N-[5-(trifluoromethyl)thiazol-2-yl]acetamide], for which the EC50 lay within 0.01 to 10 µM. As for `CCc1cnc(NC(=O)Cc2coc3cc4c(cc23)CCC4)s1` [Example 84, 2-(6,7-Dihydro-5H-cyclopenta[f]benzofuran-3-yl)-N-(5-ethylthiazol-2-yl)acetamide], the EC50 is 0.01 to 10 µM. The figure for `COc1c(C)ccc2c(CC(=O)Nc3ncc(C)s3)coc12` [Example 86, 2-(7-Methoxy-6-methyl-benzofuran-3-yl)-N-(5-methylthiazol-2-yl)acetamide] is 0.01 to 10 µM. With `COCc1cnc(NC(=O)Cc2coc3c(C)c(C)ccc23)s1` [Example 87, 2-(6,7-Dimethylbenzofuran-3-yl)-N-[5-(methoxymethyl)thiazol-2-yl]acetamide] the figure was 0.01 to 10 µM.

Regarding `Cc1cnc(NC(=O)Cc2coc3c(C)c(C)ccc23)s1` [Example 88, 2-(6,7-Dimethylbenzofuran-3-yl)-N-(5-methylthiazol-2-yl)acetamide], the EC50 lay in the range of 0.01 to 10 µM. Turning to `COCc1cnc(NC(=O)Cc2coc3c(Cl)c(C)ccc23)s1` [Example 89, 2-(7-Chloro-6-methyl-benzofuran-3-yl)-N-[5-(methoxymethyl)thiazol-2-yl]acetamide], the EC50 was in the range of 0.01 to 10 µM. The figure for `Cc1cnc(NC(=O)Cc2coc3c(Cl)c(C)ccc23)s1` [Example 90, 2-(7-Chloro-6-methyl-benzofuran-3-yl)-N-(5-methylthiazol-2-yl)acetamide] is 0.01 to 10 µM; for `COc1ccc2c(CC(=O)Nc3ncc(C(F)(F)F)s3)coc2c1C` [Example 91, 2-(6-Methoxy-7-methyl-benzofuran-3-yl)-N-[5-(trifluoromethyl)thiazol-2-yl]acetamide] it is 0.01 to 10 µM; for `Cc1cnc(NC(=O)Cc2coc3c(C)c(Cl)ccc23)s1` [Example 92, 2-(6-Chloro-7-methyl-benzofuran-3-yl)-N-(5-methylthiazol-2-yl)acetamide] it is 0.01 to 10 µM.
